Laboratory results as given in patent US12239134B2, “Plant antimicrobial compositions including an emulsifier and/or ozone and methods of use” (Arizona Board of Regents on Behalf of The University of …, priority 2018, dated 2025).

What was measured:
total plate counts = conditions: Wang et al. 2004; cited from earlier work
[1] = test system: Salmonella enterica serovar Newport SN78; assay: Ozone-plant antimicrobial wash of inoculated iceberg lettuce leaves; assay type: cell-based; conditions: ozonated wash
Protocol: Bacterial culture: Salmonella enterica serovar Newport SN78 (bovine isolate; provided by Dr. Marilyn Erickson, University of Georgia, Griffin, GA) was used for this experiment. Dual antibiotic resistance (100 μg/ml ampicillin and 25 μg/ml streptomycin, Amresco, Solon, OH) was developed in the strain through incremental antibiotic exposure. […] The frozen stock culture was initially revived through two transfers into brain heart infusion broth (BHIB) (Becton, Dickinson and Co (BD), Sparks, MD) followed by isolation on xylose lysine desoxycholate (XLD) agar (Becton, Dickinson and Co (BD), Sparks, MD) containing 100 μg/ml ampicillin and 25 μg/ml streptomycin.
Inoculum Preparation: For each experiment, a 20 hour overnight culture was prepared by inoculating 100 μl of the culture in 30 ml of tryptic soy broth (TSB) containing 100 μg/ml ampicillin and 25 μg/ml streptomycin and incubating at 37° C. in a desktop orbital shaker at 200 rpm (MaxQ 4450, Thermo Scientific, Dubuque, IA, USA). The cells in the medium were pelleted by centrifugation at 4000 g (Eppendorf Model 5810, Hamburg, Germany) and the supernatant was discarded. […]. The four outer leaves of the iceberg lettuce were removed and discarded. Whole leaf samples (10 g±0.5 g each) were used. The iceberg lettuce samples were inoculated by immersing 10 g portions into the PBS-S. Newport suspension for 2 minutes. After immersion, the excess culture suspension was allowed to drain from the leaf and the leaves were allowed to dry in a biohood for 1 hour to aid in the attachment of S. Newport to the leaf surface.
Antimicrobial wash solution preparation: The test plant-based antimicrobials used in this study consisted of oregano oil made from pure Origanum vulgare (Lhasa Karnak Company, Berkeley, California), its active component carvacrol (98% pure, molecular weight 150.2, CAS no. 499-75-2, Sigma, St. Louis, MO), olive extract (CreAgri, Hayward, CA), and quillaja saponin made from Quillaja saponaria (Sigma Aldrich, St. Louis, MO). […]

[2] = test system: mesophilic and psychrotrophic bacteria; conditions: 3 minutes (Kim et al. 1999); cited from earlier work

SMILES: O=[O+][O-] [ozonized water, ozone]
- total plate counts on cilantro leaves after treatment (total plate counts): did not decrease total plate counts
- reduction in S. Newport population on iceberg lettuce leaves ([1]; 60 min): 1.76±0.27 log CFU/g
- reduction in S. Newport population on iceberg lettuce leaves ([1]; 90 min): 1.67±0.28 log CFU/g
- reduction in S. Newport population on iceberg lettuce leaves ([1]; 120 min): 2.09±0.54 log CFU/g
- decreased counts of mesophilic bacteria on shredded lettuce [2]: 1.4 log CFU/g
- decreased counts of psychrotrophic bacteria on shredded lettuce [2]: 1.8 log CFU/g
